Laboratory results: ChEMBL document CHEMBL6121055, “Strategic Mutations in Designer Native Peptides Combat NLRP3 Inflammasome Activation in Neurodegenerative Disorders” (J Med Chem, 2025)
The source made the active and inactive calls. The calls are words filed in the database; no cut-off is given here. Residues, ends and D or L forms follow the SMILES beside them.

Experiments:
[1] = test system: N9; experiment: Inhibition of NLRP3 inflammasome activation mediated pyroptosis in LPS/tau-stimulated mouse N9 cells assessed as reduction in cell death at 5 to 30 uM by MTT assay; assay type: cell-based; details: dose 5-30 µM
[2] = Inhibition of NLRP3 inflammasome activation in LPS/ATP-stimulated mouse N9 cells assessed as inhibition of IL-1beta mRNA expression by qRT-PCR analysis; assay type: cell-based
[3] = target: Apoptosis-associated speck-like protein containing a CARD (Homo sapiens, UniProt Q9ULZ3); experiment: Binding affinity to Alexa647-labeled ASC (unknown origin) assessed as dissociation constant incubated for 5 mins by fluorescence spectra based analysis
Chain of Apoptosis-associated speck-like protein containing a CARD (Q9ULZ3 whole entry): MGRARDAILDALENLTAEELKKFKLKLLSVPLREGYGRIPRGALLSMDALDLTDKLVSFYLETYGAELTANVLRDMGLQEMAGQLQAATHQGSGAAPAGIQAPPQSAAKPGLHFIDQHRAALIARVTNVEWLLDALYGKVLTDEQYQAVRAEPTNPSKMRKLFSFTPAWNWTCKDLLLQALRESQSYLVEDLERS

[4] = test system: N9; experiment: Inhibition of NLRP3 inflammasome activation in LPS/tau-stimulated mouse N9 cells assessed as reduction in IL-1beta secretion at 10 to 20 uM preincubated with LPS for 4 hrs followed by compound addition for 30 mins and measured after tau stimulation for 24 hrs by ELISA; assay type: cell-based; details: dose 10-20 µM, time 24.5 hrs
[5] = test system: N9; experiment: Inhibition of NLRP3 inflammasome activation in LPS/ATP-stimulated mouse N9 cells assessed as reduction in caspase-1 mRNA expression by measuring remaining activity at 20 uM by qRT-PCR analysis relative to control; assay type: cell-based
[6] = test system: N9; experiment: Inhibition of NLRP3 inflammasome activation in LPS/amyloid-beta-stimulated mouse N9 cells assessed as reduction in IL-1beta secretion at 10 to 20 uM preincubated with LPS for 4 hrs followed by compound addition for 30 mins and measured after amyloid-beta stimulation for 24 hrs by ELISA; assay type: cell-based; details: dose 10-20 µM, time 24.5 hrs
[7] = test system: N9; experiment: Inhibition of NLRP3 inflammasome activation mediated mitochondrial damage in LPS/ATP-stimulated mouse N9 cells assessed as reduction in mitochondrial ROS level by MitoSOX red staining based confocal microscopic analysis; assay type: cell-based; details: dose 10-20 µM
[8] = test system: N9; experiment: Inhibition of NLRP3 inflammasome activation in LPS/tau-stimulated mouse N9 cells assessed as inhibition of ASC speck formation preincubated with LPS for 4 hrs followed by compound addition by 30 mins and measured after 24 hrs of tau stimulation by DAPI staining based immunofluorescence analysis; assay type: cell-based; details: dose 10-20 µM, time 24.5 hrs
[9] = test system: N9; experiment: Inhibition of NLRP3 inflammasome activation mediated pyroptosis in LPS/ATP-stimulated mouse N9 cells assessed as reduction in cell death at 100 uM measured after 24 hrs by MTT assay; assay type: cell-based
[10] = test system: N9; experiment: Inhibition of NLRP3 inflammasome activation mediated pyroptosis in LPS/amyloid-beta-stimulated mouse N9 cells assessed as reduction in cell death at 5 to 30 uM by MTT assay; assay type: cell-based; details: dose 5-30 µM

What does the source list for `CC[C@H](C)[C@H](NC(=O)[C@H](C)NC(=O)[C@H](C)NC(=O)[C@H](CC(C)C)NC(=O)[C@@H](NC(=O)[C@H](Cc1c[nH]c2ccccc12)NC(=O)[C@@H](N)C(C)C)[C@@H](C)CC)C(=O)N[C@@H](CC(N)=O)C(=O)N[C@@H](CCCNC(=N)N)C(=O)N[C@@H](CCCNC(=N)N)C(=O)O` (H-VWILAAINRR-OH)?
inhibition [1]: Active; IC50 [2]: 2570 nM; Kd [3]: 58 nM; inhibition [4]: Dose-dependent-effect; Activity [5]: 15%; inhibition [6]: Dose-dependent-effect; inhibition [7]: Dose-dependent-effect; inhibition [8]: Dose-dependent-effect; inhibition [9]: Active; inhibition [10]: Active
